Results as given in ChEMBL document CHEMBL3352200, “Thio-sugar motif of functional CARB-pharmacophore for antineoplastic activity. Part 2” (Bioorg Med Chem Lett, 2014).
One block for each compound: values may come before it.

Tests used:
HeLa [1] = test: Induction of apoptosis in human HeLa cells assessed as apoptotic cells at 137 uM after 4 hrs by FITC Annexin-V/propidium iodide staining-based flow cytometry (reference value: 13.00%); format: functional
LoVo [2] = test: Induction of apoptosis in human LoVo cells assessed as apoptotic cells at 275 uM after 4 hrs by FITC Annexin-V/propidium iodide staining-based flow cytometry (reference value: 20.50%); format: functional
HeLa [3] = test: Induction of apoptosis in human HeLa cells assessed as apoptotic cells at 17 uM after 4 hrs by FITC Annexin-V/propidium iodide staining-based flow cytometry (reference value: 13.00%); format: functional
A549 [4] = test: Induction of apoptosis in human A549 cells assessed as viable cells at 17 uM after 4 hrs by FITC Annexin-V/propidium iodide staining-based flow cytometry (reference value: 84.40%); format: functional; conditions: A549, 4 h, read-out: Activity
MCF7 [5] = test: Induction of apoptosis in human MCF7 cells assessed as apoptotic cells at 34 uM after 4 hrs by FITC Annexin-V/propidium iodide staining-based flow cytometry (reference value: 29.60%); format: functional
A549 [6] = test: Induction of apoptosis in human A549 cells assessed as apoptotic cells at 137 uM after 4 hrs by FITC Annexin-V/propidium iodide staining-based flow cytometry (reference value: 15.60%); format: functional
A549 [7] = test: Induction of apoptosis in human A549 cells assessed as apoptotic cells at 17 uM after 4 hrs by FITC Annexin-V/propidium iodide staining-based flow cytometry (reference value: 15.60%); format: functional
LoVo [8] = test: Induction of apoptosis in human LoVo cells assessed as apoptotic cells at 34 uM after 4 hrs by FITC Annexin-V/propidium iodide staining-based flow cytometry (reference value: 20.50%); format: functional
MCF7 [9] = test: Induction of apoptosis in human MCF7 cells assessed as viable cells at 34 uM after 4 hrs by FITC Annexin-V/propidium iodide staining-based flow cytometry (reference value: 70.40%); format: functional; conditions: MCF7, 4 h, read-out: Activity
MCF7 [10] = test: Cytotoxicity against human MCF7 cells after 14 hrs by CCK-8 assay; format: functional, cell-based; conditions: MCF7, 14 h
LoVo [11] = test: Induction of apoptosis in human LoVo cells assessed as viable cells at 275 uM after 4 hrs by FITC Annexin-V/propidium iodide staining-based flow cytometry (reference value: 79.50%); format: functional; conditions: read-out: Activity
[12] = Cytotoxicity against human PNT2 cells at 8.6 to 2200 uM after 14 hrs by CCK-8 assay; format: cell-based; conditions: pnt2, 14 h
MCF7 [13] = test: Induction of apoptosis in human MCF7 cells assessed as apoptotic cells at 275 uM after 4 hrs by FITC Annexin-V/propidium iodide staining-based flow cytometry (reference value: 29.60%); format: functional
HeLa [14] = test: Cytotoxicity against human HeLa cells after 14 hrs by CCK-8 assay; format: functional, cell-based
A549 [15] = test: Induction of apoptosis in human A549 cells assessed as viable cells at 137 uM after 4 hrs by FITC Annexin-V/propidium iodide staining-based flow cytometry (reference value: 84.40%); format: functional; conditions: A549, 4 h, read-out: Activity
LoVo [16] = test: Induction of apoptosis in human LoVo cells assessed as viable cells at 34 uM after 4 hrs by FITC Annexin-V/propidium iodide staining-based flow cytometry (reference value: 79.50%); format: functional; conditions: read-out: Activity
MCF7 [17] = test: Induction of apoptosis in human MCF7 cells assessed as viable cells at 275 uM after 4 hrs by FITC Annexin-V/propidium iodide staining-based flow cytometry (reference value: 70.40%); format: functional; conditions: MCF7, 4 h, read-out: Activity
LoVo [18] = test: Cytotoxicity against human LoVo cells after 14 hrs by CCK-8 assay; format: functional, cell-based
HeLa [19] = test: Induction of apoptosis in human HeLa cells assessed as viable cells at 137 uM after 4 hrs by FITC Annexin-V/propidium iodide staining-based flow cytometry (reference value: 87.00%); format: functional; conditions: read-out: Activity
[20] = Lipophilicity, log P of the compound; format: physicochemical; conditions: octanol/water
HeLa [21] = test: Induction of apoptosis in human HeLa cells assessed as viable cells at 17 uM after 4 hrs by FITC Annexin-V/propidium iodide staining-based flow cytometry (reference value: 87.00%); format: functional; conditions: read-out: Activity
A549 [22] = test: Cytotoxicity against human A549 cells after 14 hrs by CCK-8 assay; format: functional, cell-based; conditions: A549, 14 h
A549 [23] = test: Induction of apoptosis in human A549 cells assessed as apoptotic cells at 69 uM after 4 hrs by FITC Annexin-V/propidium iodide staining-based flow cytometry (reference value: 15.60%); format: functional
LoVo [24] = test: Induction of apoptosis in human LoVo cells assessed as apoptotic cells at 69 uM after 4 hrs by FITC Annexin-V/propidium iodide staining-based flow cytometry (reference value: 20.50%); format: functional
HeLa [25] = test: Induction of apoptosis in human HeLa cells assessed as apoptotic cells at 550 uM after 4 hrs by FITC Annexin-V/propidium iodide staining-based flow cytometry (reference value: 13.00%); format: functional
HeLa [26] = test: Induction of apoptosis in human HeLa cells assessed as viable cells at 69 uM after 4 hrs by FITC Annexin-V/propidium iodide staining-based flow cytometry (reference value: 87.00%); format: functional; conditions: read-out: Activity
A549 [27] = test: Induction of apoptosis in human A549 cells assessed as viable cells at 69 uM after 4 hrs by FITC Annexin-V/propidium iodide staining-based flow cytometry (reference value: 84.40%); format: functional; conditions: A549, 4 h, read-out: Activity
HeLa [28] = test: Induction of apoptosis in human HeLa cells assessed as viable cells at 550 uM after 4 hrs by FITC Annexin-V/propidium iodide staining-based flow cytometry (reference value: 87.00%); format: functional; conditions: read-out: Activity
HeLa [29] = test: Induction of apoptosis in human HeLa cells assessed as apoptotic cells at 69 uM after 4 hrs by FITC Annexin-V/propidium iodide staining-based flow cytometry (reference value: 13.00%); format: functional
LoVo [30] = test: Induction of apoptosis in human LoVo cells assessed as apoptotic cells at 550 uM after 4 hrs by FITC Annexin-V/propidium iodide staining-based flow cytometry (reference value: 20.50%); format: functional
A549 [31] = test: Induction of apoptosis in human A549 cells assessed as apoptotic cells at 550 uM after 4 hrs by FITC Annexin-V/propidium iodide staining-based flow cytometry (reference value: 15.60%); format: functional
LoVo [32] = test: Induction of apoptosis in human LoVo cells assessed as viable cells at 550 uM after 4 hrs by FITC Annexin-V/propidium iodide staining-based flow cytometry (reference value: 79.50%); format: functional; conditions: read-out: Activity
LoVo [33] = test: Induction of apoptosis in human LoVo cells assessed as viable cells at 69 uM after 4 hrs by FITC Annexin-V/propidium iodide staining-based flow cytometry (reference value: 79.50%); format: functional; conditions: read-out: Activity
A549 [34] = test: Induction of apoptosis in human A549 cells assessed as viable cells at 550 uM after 4 hrs by FITC Annexin-V/propidium iodide staining-based flow cytometry (reference value: 84.40%); format: functional; conditions: A549, 4 h, read-out: Activity

logP [20]: -1.13
Structure (SMILES): CC(=O)OC[C@H]1O[C@@H](S[C@H]2CC(=O)[C@@H]3OC[C@H]2O3)[C@H](OC(C)=O)[C@@H](OC(C)=O)[C@H]1OC(C)=O
Activity (HeLa [1]): 62.8% | Activity (LoVo [2]): 30% | Activity (HeLa [3]): 25.9% | viability at 17 µM (A549 [4]): 71% | Activity (MCF7 [5]): 42.2% | Activity (A549 [6]): 21.9% | Activity (A549 [7]): 29% | Activity (LoVo [8]): 34.9% | viability at 34 µM (MCF7 [9]): 57.8% | IC50 (MCF7 [10]): 344 µM | viability at 275 µM (LoVo [11]): 70% | Activity [12]: 10% | Activity (MCF7 [13]): 19.2% | IC50 (HeLa [14]): 676 µM | viability at 137 µM (A549 [15]): 78.1% | viability at 34 µM (LoVo [16]): 65.1% | viability at 275 µM (MCF7 [17]): 80.8% | IC50 (LoVo [18]): 624 µM | viability at 137 µM (HeLa [19]): 37.2% | viability at 17 µM (HeLa [21]): 74.1% | IC50 (A549 [22]): 467 µM

logP [20]: -2.05
Structure (SMILES): O=C1C[C@H](S[C@@H]2O[C@H](CO)[C@@H](O)[C@H](O)[C@H]2O)[C@H]2CO[C@@H]1O2
Activity (A549 [23]): 29.7% | Activity (LoVo [24]): 29% | Activity (HeLa [25]): 32.8% | Activity (MCF7 [5]): 24.9% | viability at 69 µM (HeLa [26]): 82.6% | viability at 69 µM (A549 [27]): 70.3% | viability at 550 µM (HeLa [28]): 67.2% | viability at 34 µM (MCF7 [9]): 75.1% | IC50 (MCF7 [10]): 366 µM | Activity (HeLa [29]): 17.4% | Activity [12]: 10% | Activity (MCF7 [13]): 73.6% | Activity (LoVo [30]): 37.65% | Activity (A549 [31]): 25.7% | IC50 (HeLa [14]): 1080 µM | viability at 275 µM (MCF7 [17]): 26.4% | viability at 550 µM (LoVo [32]): 62.4% | IC50 (LoVo [18]): 772 µM | viability at 69 µM (LoVo [33]): 71% | IC50 (A549 [22]): 692 µM | viability at 550 µM (A549 [34]): 74.3%
